Assay results published in patent US12410160B2 (Gilead Sciences, Inc., priority 2021, dated 2025).
Read-outs that look alike come from different tables or passages of the source.

What was measured:
[1] = biological target: human KHK-C (Homo sapiens (Human), UniProt P50053); experiment: KHK Biochemical Assay (IC50), ADP-Glo, KHK-C; settings: average of at least two separate assays
In short: (§1)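 ADP-Glo luminescence measured ADP made over a 4 h room-temperature reaction of ATP plus fructose, started after 30 min compound–enzyme pre-incubation. Buffer: 50 mM Hepes pH 7.4, 140 mM KCl, 5 mM MgCl2, 0.01% Triton-X. Enzyme was His-tagged, BL21 (DE3)-expressed, Ni-NTA-purified; compounds in 1:3 DMSO dilution series.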

[2] = biological target: human KHK-A (Homo sapiens (Human), UniProt P50053); experiment: KHK Biochemical Assay (IC50), ADP-Glo, KHK-A; settings: average of at least two separate assays
Chain of human KHK-A (P50053 other isoform, or with tags, fused parts or gaps): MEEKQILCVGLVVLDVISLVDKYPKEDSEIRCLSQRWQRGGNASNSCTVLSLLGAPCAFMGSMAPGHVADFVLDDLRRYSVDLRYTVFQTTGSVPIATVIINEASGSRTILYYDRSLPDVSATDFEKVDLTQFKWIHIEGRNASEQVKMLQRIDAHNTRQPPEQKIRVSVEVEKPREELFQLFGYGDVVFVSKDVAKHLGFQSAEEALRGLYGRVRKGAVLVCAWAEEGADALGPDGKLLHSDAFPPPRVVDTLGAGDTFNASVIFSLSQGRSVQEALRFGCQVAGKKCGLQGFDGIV
In short: as §1

[3] = system: HepG2 cells; experiment: F1P Cell-Based Assay (EC50), 13C6-fructose-1-phosphate in HepG2 cells (cell culture medium or 50% human plasma); settings: Homo sapiens
[4] = biological target: KHK-C expressed in NRK-52E cells (Homo sapiens (Human), UniProt P50053); experiment: KHK-C Cell-based Assay (EC50), NRK CTG, fructose-mediated ATP-depletion
Chain of KHK-C expressed in NRK-52E cells (P50053 whole entry): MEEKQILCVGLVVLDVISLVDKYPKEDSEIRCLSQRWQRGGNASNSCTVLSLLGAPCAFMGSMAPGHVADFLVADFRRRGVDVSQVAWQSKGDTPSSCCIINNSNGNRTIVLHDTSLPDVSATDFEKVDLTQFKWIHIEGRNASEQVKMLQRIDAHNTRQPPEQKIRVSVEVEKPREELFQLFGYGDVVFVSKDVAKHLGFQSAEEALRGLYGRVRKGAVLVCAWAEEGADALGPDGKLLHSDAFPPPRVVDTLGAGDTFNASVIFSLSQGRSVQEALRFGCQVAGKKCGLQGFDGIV

[5] = HepG2, HepG2 cells, 50% human plasma, read-out: F1P 50% HP EC50
[6] = HepG2, read-out: F1P 10% FBS EC50, HepG2 cells, cell culture medium (10% FBS)

Chain of human KHK-C (P50053 whole entry): as above

| IC50 [1] [µM] | IC50 [2] [µM] | EC50 [3, 5] [µM] | EC50 [3, 6] [µM] | EC50 [4] [µM] | Structure (SMILES) |
| --- | --- | --- | --- | --- | --- |
| 0.0001 | 0.0167 | 0.071 | 0.0678 | 0.0064 | C[C@H]1[C@H](O)CN1c1nc(-c2ccc3c(c2)CC[C@]32NC(=O)N(CCO)C2=O)c2c(n1)C(F)(F)CC2 [Example 686, (58)-5′-[7,7-difluoro-2-[(2S,3R)-3-hydroxy-2-methyl-azetidin-1-yl]-5,6-dihydrocyclopenta[d]pyrimidin-4-yl]-3-(2-hydroxyethyl)spiro[imidazolidine-5,1′-indane]-2,4-dione] |
| 0.0002 | 0.0472 | 0.141 | 0.0224 | 0.0064 | CCCN1C(=O)NC2(COc3cc(-c4nc(N5C[C@@H](O)[C@@H]5C)nc5c4CCC5(F)F)ccc32)C1=O (stereo partly drawn) [Example 693, 6-[7,7-difluoro-2-[(2S,3R)-3-hydroxy-2-methyl-azetidin-1-yl]-5,6-dihydroeyelopenta[d]pyrimidin-4-yl]-3′-propyl-spiro[2H-benzofuran-3,5′-imidazolidine]-2′,4′-dione] |
| 0.0004 | 0.0245 | 0.109 | 0.0543 | 0.0172 | C[C@H]1[C@H](O)CN1c1nc(-c2ccc3c(c2)OCC32NC(=O)N(C3COC3)C2=O)c2c(n1)C(F)(F)CC2 (stereo partly drawn) [Example 694, 6-[7,7-difluoro-2-[(2S,3R)-3-hydroxy-2-methyl-azetidin-1-yl]-5,6-dihydroeyelopenta[d]pyrimidin-4-yl]-3′-(oxetan-3-yl)spiro[2H-benzofuran-3,5′-imidazolidine]-2′,4′-dione] |
| 0.0005 | 0.0162 | 0.213 | 0.0271 | 0.0103 | C[C@H]1[C@H](O)CN1c1nc(-c2ccc3c(c2)OCC32CN(C)C(=O)N2)c2c(n1)C(F)(F)CC2 (stereo partly drawn) [Example 695, 6-[7,7-difluoro-2-[(2S,3R)-3-hydroxy-2-methyl-azetidin-1-yl]-5,6-dihydroeyelopenta[d]pyrimidin-4-yl]-1′-methyl-spiro[2H-benzofuran-3,4′-imidazolidine]-2′-one] |
| 0.0003 | 0.0887 | 0.492 | 0.0852 | 0.0328 | C[C@H]1[C@H](O)CN1c1nc(-c2ccc3c(c2)OCC32NC(=O)N(CC(F)(F)F)C2=O)c2c(n1)C(F)(F)CC2 (stereo partly drawn) [Example 699, 6-[7,7-difluoro-2-[(2S,3R)-3-hydroxy-2-methyl-azetidin-1-yl]-5,6-dihydrocyclopenta[d]pyrimidin-4-yl]-3′-(2,2,2-trifluoroethyl)spiro[2H-benzofuran-3,5′-imidazolidine]-2′,4′-dione] |
| 0.0002 | 0.0161 | 0.249 | 0.163 | 0.0373 | C[C@H]1[C@H](O)CN1c1nc(-c2ccc3c(c2)OCC32CN(CCO)C(=O)N2)c2c(n1)C(F)(F)CC2 (stereo partly drawn) [Example 700, 6-[7,7-difluoro-2-[(2S,3R)-3-hydroxy-2-methyl-azetidin-1-yl]-5,6-dihydrocyclopenta[d]pyrimidin-4-yl]-1′-(2-hydroxyethyl)spiro[2H-benzofuran-3,4′-imidazolidine]-2′-one] |
| > 0.1 | > 0.1 | > 0.5 | > 0.5 | > 0.5 | COc1c(Cl)cc(-c2nc(N3C[C@@H](O)[C@@H]3C)nc3c2CCC3(F)F)cc1S(C)(=N)=O (stereo partly drawn) [Example 717, (3-chloro-5-(7,7-difluoro-2-((2S,3R)-3-hydroxy-2-methylazetidin-1-yl)-6,7-dihydro-5H-cyclopenta[d]pyrimidin-4-yl)-2-methoxyphenyl)(imino)(methyl)-λ^6-sulfanone] |
| 0.0042 | 0.0051 | 0.0237 | 0.0115 | 0.0176 | Cc1ccc(-c2nc(N3C[C@@H](O)[C@@H]3C)nc3c2CCC3(F)F)cc1S(C)(=N)=O (stereo partly drawn) [Example 718, (5-(7,7-difluoro-2-((2S,3R)-3-hydroxy-2-methylazetidin-1-yl)-6,7-dihydro-5H-cyclopenta[d]pyrimidin-4-yl)-2-methylphenyl)(imino)(methyl)-λ^6-sulfanone] |
